Assay results as given in paper PMC10303900, “Discovery of a New Chalcone-Trimethoxycinnamide Hybrid with Antimitotic Effect: Design, Synthesis, and Structure—Activity Relationship Studies” (Pharmaceuticals, 2023).
Where two headings read alike, the source gives them in different places.

How the values were obtained:
HPAEpiC = assay: SRB growth inhibition assay, non-tumor pulmonary alveolar epithelial cells; format: cell-based; settings: Homo sapiens, Epithelial cell, 48 h
Experimental: (§1) A sulforhodamine B (SRB) assay was performed to evaluate the in vitro growth inhibitory activity of all synthesized hybrids, as well as intermediates in the human tumor cell lines of melanoma (A375-C5), breast adenocarcinoma (MCF-7), and colorectal carcinoma (HCT116), as well as on the non-tumor Human Pulmonary Alveolar Epithelial cell line (HPAEpiC). The concentration inducing 50% cell growth inhibition (GI50), was calculated. […] The overall results prompt us to further investigate the mechanism behind the cytotoxic activities of compounds 6, 7, and 13 in colorectal tumor cells. Moreover, in silico studies were performed, aiming to screen for drug-likeness.
(§2) A375-C5 (melanoma) and MCF-7 (breast adenocarcinoma) cell lines were obtained from the European Collection of Cell Culture, UK, and were grown in RPMI-1640 medium (Roswell Park Memorial Institute, Biochrom, Cambridge, UK) with 5% inactivated FBS (fetal bovine serum, Biochrom). HCT-116 (colon adenocarcinoma) cells were grown in DMEM medium (Dulbecco’s Modified Eagle’s, Biochrom) with 5% inactivated FBS. The non-tumor human pulmonary alveolar epithelial cells (HPAEpiC) were obtained from ScienCell Research Laboratories and grown in DMEM medium supplemented with 10% FBS and 1% non-essential amino acids (Sigma-Aldrich Co., Saint Louis, MO, USA). All cell lines were maintained in a humidified incubator (Hera Cell, Heraeus, Hanau, Germany) at 37 °C and with 5% CO2, and cell viability was regularly monitored using the exclusion trypan blue dye.
(§3) A total of 5.0 × 10^4 A375-C5, MCF-7, and HCT-116 cells, or 6.0 × 10^4 HPAEpiC cells were seeded in 96-well plates and incubated at 37 °C and 5% CO2 to allow for cell attachment. After 24 h, cells were treated with two-fold serial dilutions of test compounds (0–150 µM), or with DMSO as the compound solvent. In parallel, cells in a time-zero (T0) plate, without treatment, were fixed with 50% (m/v) trichloroacetic acid (TCA, Merck Millipore, Darmstadt, Germany), for 1 h at 4 °C, and then washed with distilled water and left to dry. Forty-eight hours after compound treatment, cells were fixed with 50% TCA and stained with SRB (Sigma-Aldrich Co., Ltd., Gillingham, UK) for 30 min at room temperature, followed by 5 rounds of washing with 1% (v/v) acetic acid (Merck Milli-pore, Darmstadt, Germany). SRB–protein complexes were then solubilized with […] Tris buffer (Sigma-Aldrich Co., Ltd., Gillingham, UK) for 30 min, and the absorbance was measured at 515 nm in a microplate reader (Biotek Synergy 2, BioTek Instruments, Inc., Winooski, VT, USA). A dose-response curve was obtained for each cell line, and the concentration that caused 50% cell growth inhibition (GI50) was calculated.

A375-C5 = assay: Sulforhodamine B (SRB) growth inhibition assay, melanoma cells; format: cell-based; settings: Homo sapiens, 48 h
Experimental: as §1, §2, §3

HCT116 (HCT116 p53+/+) = assay: SRB growth inhibition assay, colorectal carcinoma cells; format: cell-based; settings: Homo sapiens, HCT-116
Experimental: as §1, §2, §3

HCT116 cells = assay: Apoptosis detection via flow cytometry (Annexin V-FITC/PI); format: cell-based, human; settings: HCT116, 48 h, vs untreated or DMSO
Experimental: Double labeling with annexin V-FITC and propidium iodide dyes was used to detect cells going through apoptotic events, using a flow cytometer in order to obtain insights into the mechanism by which compounds 6, 7, and 13 generate antiproliferative activity against colorectal carcinoma cells. For that, HCT116 cells were exposed to each compound for 48 h.
To evaluate apoptotic cell death, the “Annexin V-FITC Apoptosis Detection Kit” (eBioscience, Vienna, Austria) was used according to the manufacturer’s instructions. Briefly, 1.2 × 10^5 cells/well were seeded into 6-well plates, and 24 h later, cells were treated with compounds 6, 7, and 13. After 48 h, floating and adherent cells were collected, pelleted via centrifugation (1000 rpm, 5 min), and suspended in binding buffer. Annexin V-FITC was added and incubated for 10 min, protected from light. Cells were washed and resuspended in binding buffer, and 20 μg/mL of propidium iodide (PI) was added. Fluorescence was assessed using the BD Accuri™ C6 Plus flow cytometer (BD Biosciences, Qume Drive, San Jose, CA, USA), and the data were analyzed with the BD Accuri TM C6 Plus software (version 1.0.27.1, San Jose, CA, USA). At least 20,000 events per sample were collected.

Q: For `CCCc1c(OCCNC(=O)/C=C/c2cc(OC)c(OC)c(OC)c2)ccc(C(=O)/C=C/c2cc(OC)c(OC)c(OC)c2)c1O` [Compound 7, (E)-N-(2-(3-hydroxy-2-propyl-4-((E)-3-(3,4,5-trimethoxyphenyl)acryloyl)phenoxy)ethyl)-3-(3,4,5-trimethoxyphenyl)acrylamide], which GI50 (HPAEpiC) is on record?
A: 57.2 ± 8.68 µM

Q: And the GI50 (A375-C5)?
A: 32.1 ± 1.27 µM

Q: What about the GI50 (HCT116 (HCT116 p53+/+); SRB, 48 h, read-out: GI50 HCT116) of the same molecule?
A: 3.26 ± 1.39 µM

Q: What about the GI50 (HCT116 (HCT116 p53+/+); Table 2, 48 h, read-out: GI50 HCT116 p53+/+) of the same molecule?
A: 3.26 ± 1.39 µM

Q: What about the “Apoptosis induction (Annexin V-positive cells)” value (HCT116 cells) of the same molecule?
A: induces apoptotic tumor cell death
